Data published in patent US20060105013A1, “Osteopontin-coated surfaces and methods of use” (priority 2000, published 2006).

How the values were obtained:
[1] = system: human osteoprogenitor cells; assay: Peptide binding: attachment and spreading of human osteoprogenitor cells on coated plates; type: cell-based
Experimental: Example 11 analyzes the binding and cell spread activity of various peptides. The activities were measured in 24-well plates that were coated overnight at 4° C. with 10 μg/ml of the indicated ligand or peptide and then blocked for one hour at room temperature with 10 mg/ml BSA (Bovine Serum Albumin) in PBS (Phosphate Buffered Saline). To preserve the integrity of the adhesion receptors osteoprogenitor cells were harvested from sub-confluent cultures by non-enzymatic cell dissociation solution (Sigma, St. Louis, Mo.). Cells were washed twice with PBS and re-suspended at a concentration of 1×10^5 cells/ml of sterile Ca^2+- and Mg^2+-free PBS, supplemented with 0.1% BSA and 1 mM sodium pyruvate. 5×10^4 cells were incubated in each well and, after one hour at 37° C., the wells were washed three times with 0.5 ml PBS to remove non-adherent cells, fixed in 1% glutaraldehyde in 0.1 M cacodylate buffer (pH 7.4) at room temperature for one hour then stained with toluidine blue and hematoxylin. The total number of attached or spread cells in each well were counted microscopically using a Nikon Eclipse microscope equipped with a Sony digital camera. Total number of attached or spread cells were quantified using an Optima 5.2 image analysis system. Each experiment was done in triplicate and is reported as mean+/−standard error. To minimize variability inherent to cell attachment studies cells were scored as attached only when a defined nucleus observed accompanied by a transition from round to cuboidal cell morphology. Round cells that are loosely attached with no defined nucleus were scored as non-attached. These cells can be removed with repeated washes. The viability of the cells was measured before and after the termination of the experiments and only data from experiments with greater than 95% cell viability were used. […] Cell spreading was determined by membrane contour analysis and was scored according to increase in cell volume/surface area. Because of this change in cell volume/surface area, cell spreading is a measure of a change in cellular development. In some experiments, cell spreading was also assessed by the formation of stress fibers. The formation of stress fibers and/or changes in cell volume/surface area are each characteristics of cells undergoing differentiation. Each experiment was performed in quadruplicate wells and repeated three times.
5000 total human osteoprogenitor cells were plated on either uncoated plates or coated and incubated at 37° C. in a humidified atmosphere (95% air, 5% CO2). After 30 minutes, unattached cells were removed and the plates were washed with PBS. The total number of attached cells was determined as described in the materials and methods. In some experiments (labeled with an “#” in Table 8), antibodies ([…]) against various integrins were incubated with the cells for 15 minutes prior to plating.

[2] = system: HOS cells; assay: Attachment of HOS cells to plastic, glass or chromocobalt surfaces coated with OPN; type: cell-based, human; details: 1 hour
Experimental: 500 cells were plated on coated plastic, glass or chromocobalt surfaces and incubated at 37° C. in a humidified atmosphere (95% air 5% CO2). Surfaces were coated with either human recombinant phosphorylated OPN (rhOPN) or unphosphorylated OPN. Fibronectin coated surfaces were used as a control. After 1 hour, unattached cells were removed and the surfaces were washed with PBS. The total number of attached cells was determined for the total cpm released for the surfaces after the cells were lysed with 10% TCA and solubilized in 5 ml scintillation fluid. All measurements were done in triplicates.

[3] = system: canine model; assay: Osseointegration of coated TPS dental implants in canine model (bone to implant contact, bone density); type: in vivo, dog; details: coating 200 μg/ml
Excerpt: Canine models allow the use of implant designs and sizes commonly used in clinical applications.
Mandibular premolars and first molars were extracted bilaterally in a total of twelve dogs. After a healing period of three months, 6 implants TPS (ITI 4.1×8 mm) were placed in each mandibular quadrant. Test coatings of rOPN and mOC-1016 and non-coated TPS control wre used. A randomized distrubution of tests and controls were incorporated.
Large hounds were used in this Example. For all surgical procedures (extractions, implant placement, suture removal), after sedation with acepromazine (0.1 mg/kgS.C.), the animals were anesthetized using pentobarbitol (20 mg/kg I.V.). Antibiotics (bicillin 200,000 u I.M.) and ibuprofen for pain control (200 mg/dog/day P.O.) were given for extraction and implant placement surgeries. For sacrifice, an overdose of pentobarbitol (50 mg/kg I.V. after sedation with acepromazine 0.1 mg/kg S.C.) was administered.
The implant and it's surrounding tissue were dissected in block, fixed in 4% formaldehyde and imbedded in PMMA. The osseointegration of the implant was measured as percent of directly apposed bone versus total implant area by contour analysis using an image analysis system. The extent of new mineralized bone (in percent) in the area between the major and minor diameter of the implant was also determined.

[4] = molecular target: αvβ3 integrin (human) (UniProt P06756); assay: cell-based or functional assay
UniProt P06756, sequence (P06756 31-1048, chain 1 of 2): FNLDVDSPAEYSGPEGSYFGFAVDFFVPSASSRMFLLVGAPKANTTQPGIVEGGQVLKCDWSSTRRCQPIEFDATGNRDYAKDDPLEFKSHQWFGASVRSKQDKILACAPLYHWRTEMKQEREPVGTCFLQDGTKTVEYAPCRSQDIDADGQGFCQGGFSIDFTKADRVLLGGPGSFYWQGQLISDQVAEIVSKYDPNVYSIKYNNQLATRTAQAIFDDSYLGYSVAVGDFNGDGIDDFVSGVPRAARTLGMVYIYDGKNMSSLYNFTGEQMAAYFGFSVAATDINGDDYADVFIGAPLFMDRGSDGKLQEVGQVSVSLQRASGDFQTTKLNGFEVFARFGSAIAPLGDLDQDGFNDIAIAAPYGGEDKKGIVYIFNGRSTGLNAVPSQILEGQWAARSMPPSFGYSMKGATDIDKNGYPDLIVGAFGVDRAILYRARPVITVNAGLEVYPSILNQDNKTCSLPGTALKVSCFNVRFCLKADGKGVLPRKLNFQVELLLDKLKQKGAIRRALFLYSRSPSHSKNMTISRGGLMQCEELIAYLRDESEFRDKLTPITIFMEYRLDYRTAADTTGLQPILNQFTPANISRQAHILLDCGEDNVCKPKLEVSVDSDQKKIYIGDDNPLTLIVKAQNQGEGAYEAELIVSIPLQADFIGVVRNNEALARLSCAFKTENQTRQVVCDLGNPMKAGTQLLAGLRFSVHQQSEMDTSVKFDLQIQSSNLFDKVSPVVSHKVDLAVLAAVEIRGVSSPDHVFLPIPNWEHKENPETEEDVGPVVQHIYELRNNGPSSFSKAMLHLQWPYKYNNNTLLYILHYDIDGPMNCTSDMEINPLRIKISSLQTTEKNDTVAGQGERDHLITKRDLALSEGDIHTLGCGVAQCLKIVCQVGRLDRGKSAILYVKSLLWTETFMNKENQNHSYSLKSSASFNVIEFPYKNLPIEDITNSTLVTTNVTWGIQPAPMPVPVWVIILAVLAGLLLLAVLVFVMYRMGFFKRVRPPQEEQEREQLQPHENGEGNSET
UniProt P06756, sequence (P05106 27-788, chain 2 of 2, further chain): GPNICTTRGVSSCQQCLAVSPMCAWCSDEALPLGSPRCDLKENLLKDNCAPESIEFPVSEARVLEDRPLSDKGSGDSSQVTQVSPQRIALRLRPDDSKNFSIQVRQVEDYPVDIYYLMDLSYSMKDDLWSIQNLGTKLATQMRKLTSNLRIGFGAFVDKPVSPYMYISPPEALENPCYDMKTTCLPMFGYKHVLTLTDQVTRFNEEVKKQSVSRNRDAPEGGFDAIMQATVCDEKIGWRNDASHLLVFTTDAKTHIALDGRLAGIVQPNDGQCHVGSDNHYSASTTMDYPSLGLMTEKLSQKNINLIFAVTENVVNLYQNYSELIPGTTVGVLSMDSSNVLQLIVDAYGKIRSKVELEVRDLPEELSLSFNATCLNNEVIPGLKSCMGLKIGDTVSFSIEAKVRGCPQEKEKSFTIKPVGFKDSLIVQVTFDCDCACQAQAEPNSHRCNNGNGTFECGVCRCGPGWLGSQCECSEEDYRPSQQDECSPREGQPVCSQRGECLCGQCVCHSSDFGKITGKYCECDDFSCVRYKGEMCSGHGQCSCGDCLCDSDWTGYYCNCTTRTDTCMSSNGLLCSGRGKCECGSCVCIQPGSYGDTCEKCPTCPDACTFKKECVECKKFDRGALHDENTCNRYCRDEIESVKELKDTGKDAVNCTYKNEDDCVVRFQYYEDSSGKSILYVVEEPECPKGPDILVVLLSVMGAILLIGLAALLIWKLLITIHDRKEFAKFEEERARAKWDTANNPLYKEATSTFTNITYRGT

[5] = molecular target: αβ1 integrin (human) (UniProt P05556); assay: cell-based or functional assay
UniProt P05556, sequence (P05556 21-798): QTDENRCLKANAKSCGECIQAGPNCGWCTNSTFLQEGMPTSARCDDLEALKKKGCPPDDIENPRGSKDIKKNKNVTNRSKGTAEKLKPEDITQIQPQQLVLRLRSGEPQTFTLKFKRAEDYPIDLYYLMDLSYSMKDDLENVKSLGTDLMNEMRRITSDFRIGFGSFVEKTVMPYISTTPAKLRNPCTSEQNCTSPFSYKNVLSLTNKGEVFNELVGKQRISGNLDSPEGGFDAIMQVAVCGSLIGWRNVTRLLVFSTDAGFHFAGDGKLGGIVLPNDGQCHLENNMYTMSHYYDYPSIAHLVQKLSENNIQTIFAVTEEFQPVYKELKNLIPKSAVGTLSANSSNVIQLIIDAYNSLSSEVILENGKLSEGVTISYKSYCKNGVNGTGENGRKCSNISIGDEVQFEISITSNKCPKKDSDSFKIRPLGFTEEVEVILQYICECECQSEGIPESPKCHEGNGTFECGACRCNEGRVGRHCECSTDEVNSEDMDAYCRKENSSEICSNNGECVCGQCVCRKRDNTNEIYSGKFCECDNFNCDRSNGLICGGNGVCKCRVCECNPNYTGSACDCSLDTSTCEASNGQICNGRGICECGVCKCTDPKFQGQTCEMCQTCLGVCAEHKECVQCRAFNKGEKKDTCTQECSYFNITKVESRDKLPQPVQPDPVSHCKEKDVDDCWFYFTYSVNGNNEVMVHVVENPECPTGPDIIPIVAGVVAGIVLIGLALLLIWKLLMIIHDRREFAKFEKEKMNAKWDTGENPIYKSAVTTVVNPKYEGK

[6] = molecular target: CD44 (human) (UniProt P16070); assay: cell-based or functional assay
UniProt P16070, sequence (P16070 21-742): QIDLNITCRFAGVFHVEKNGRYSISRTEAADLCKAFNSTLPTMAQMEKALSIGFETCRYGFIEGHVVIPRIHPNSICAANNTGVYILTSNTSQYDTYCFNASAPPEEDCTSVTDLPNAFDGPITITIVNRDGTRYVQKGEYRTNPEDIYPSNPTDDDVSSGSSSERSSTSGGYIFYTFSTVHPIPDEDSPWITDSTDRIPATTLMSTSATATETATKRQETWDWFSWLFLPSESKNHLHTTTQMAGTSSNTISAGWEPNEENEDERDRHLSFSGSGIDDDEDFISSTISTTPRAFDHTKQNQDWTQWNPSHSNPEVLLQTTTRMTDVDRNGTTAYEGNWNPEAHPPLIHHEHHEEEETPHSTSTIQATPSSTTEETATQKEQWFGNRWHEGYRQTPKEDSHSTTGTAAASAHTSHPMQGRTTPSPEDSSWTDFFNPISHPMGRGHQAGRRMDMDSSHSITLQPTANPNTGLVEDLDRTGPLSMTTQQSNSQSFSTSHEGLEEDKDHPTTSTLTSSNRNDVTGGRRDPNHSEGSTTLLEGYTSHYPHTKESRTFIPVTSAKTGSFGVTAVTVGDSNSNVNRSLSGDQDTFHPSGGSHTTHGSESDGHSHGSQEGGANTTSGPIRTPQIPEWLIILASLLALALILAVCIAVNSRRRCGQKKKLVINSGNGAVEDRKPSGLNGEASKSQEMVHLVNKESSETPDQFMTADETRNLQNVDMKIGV

[7] = system: canine model; assay: Safety assessment (serum chemistry, hematology, antibody) after coated implant treatment in dogs; type: in vivo, dog; details: dogs with coated implants; vs baseline
Excerpt: The issue of safety was also addressed by assessing the serum chemistry, hematology and antibody results following treatment. […] Therefore, rOPN and OC-1016 are safe based upon these evaluations.

[8] = cells pre-incubated with Anti-CD44
[9] = cells pre-incubated with Anti-αvβ3
[10] = cells pre-incubated with Anti-αβ1

| Substance | % Spread ([1]; no antibody, coated plates) | % total attached cells ([1]; no antibody, coated plates) | % total attached ([2]; Plastic surface) | % total attached ([2]; chromocobalt (CrCo) surface) | % total attached ([2]; glass surface) | Mean Percent Bone Density ([3]; 4 weeks) | Mean Percent Bone to Implant Contact ([3]; 4 weeks) | Mean Percent Bone to Implant Contact ([3]; 12 weeks) | further results |
| --- | --- | --- | --- | --- | --- | --- | --- | --- | --- |
| DTFTPIVPTVDVPNGRFDSLAYGLKSKSKKFQ [SEQ ID NO: 13] | 100.0% | 91.1% | – | – | – | – | – | – | – |
| Fibronectin [reference compound] | – | – | 91.6% | 54.8% | 89.6% | – | – | – | – |
| OPN: Table 2: unphosphorylated OPN used as surface coating | – | – | 43.6% | 4% | 37.2% | 70.5% | 65.6% | 62.5% | Mean Percent Bone Density ([3]; 12 weeks): 56.9% |
| Osteopontin (from UniProt P10451 17-314) (ligand) | – | – | – | – | – | – | – | – | % Spread (# Anti-αvβ3) [4]: 24.8%; % total attached cells (# Anti-αvβ3) [4]: 69.2%; % Spread (# Anti-αβ1) [5]: 56.6%; % total attached cells (# Anti-αβ1) [5]: 74.8%; % Spread (# Anti-CD44) [6]: 46.4%; % total attached cells (# Anti-CD44) [6]: 66% |
| Osteopontin: osteopontin used to coat plates in Table 8; form not specified | 78.4% | 78.4% | – | – | – | – | – | – | % Spread [1, 8]: 46.4%; % total attached cells [1, 8]: 66%; % Spread [1, 9]: 24.8%; % total attached cells [1, 9]: 69.2%; % Spread [1, 10]: 56.6%; % total attached cells [1, 10]: 74.8% |
| rOPN: Recombinant Osteopontin coated on TPS dental implants; printed as OPN in Tables 4-7 | – | – | – | – | – | 70.9% | 65.6% | 62.5% | serum chemistry, hematology and antibody results following treatment [7]: no clinically significant differences from baseline |
